Source: patent US20170268001A1, “RNAS WITH TUMOR RADIO/CHEMO-SENSITIZING AND IMMUNOMODULATORY PROPERTIES AND METHODS OF THEIR PREPARATION AND APPLICATION” (THE UNIVERSITY OF CHICAGO, priority 2016, published 2017)

T1: RIG-I (Homo sapiens, UniProt O95786, K858A/K861A)
T1 construct: HEK293 cells overexpressing either the full length RIG-I; host or cells: HEK293; HCT116 also for the qRT-PCR validation
T1 sequence (O95786 1-925 K858A/K861A): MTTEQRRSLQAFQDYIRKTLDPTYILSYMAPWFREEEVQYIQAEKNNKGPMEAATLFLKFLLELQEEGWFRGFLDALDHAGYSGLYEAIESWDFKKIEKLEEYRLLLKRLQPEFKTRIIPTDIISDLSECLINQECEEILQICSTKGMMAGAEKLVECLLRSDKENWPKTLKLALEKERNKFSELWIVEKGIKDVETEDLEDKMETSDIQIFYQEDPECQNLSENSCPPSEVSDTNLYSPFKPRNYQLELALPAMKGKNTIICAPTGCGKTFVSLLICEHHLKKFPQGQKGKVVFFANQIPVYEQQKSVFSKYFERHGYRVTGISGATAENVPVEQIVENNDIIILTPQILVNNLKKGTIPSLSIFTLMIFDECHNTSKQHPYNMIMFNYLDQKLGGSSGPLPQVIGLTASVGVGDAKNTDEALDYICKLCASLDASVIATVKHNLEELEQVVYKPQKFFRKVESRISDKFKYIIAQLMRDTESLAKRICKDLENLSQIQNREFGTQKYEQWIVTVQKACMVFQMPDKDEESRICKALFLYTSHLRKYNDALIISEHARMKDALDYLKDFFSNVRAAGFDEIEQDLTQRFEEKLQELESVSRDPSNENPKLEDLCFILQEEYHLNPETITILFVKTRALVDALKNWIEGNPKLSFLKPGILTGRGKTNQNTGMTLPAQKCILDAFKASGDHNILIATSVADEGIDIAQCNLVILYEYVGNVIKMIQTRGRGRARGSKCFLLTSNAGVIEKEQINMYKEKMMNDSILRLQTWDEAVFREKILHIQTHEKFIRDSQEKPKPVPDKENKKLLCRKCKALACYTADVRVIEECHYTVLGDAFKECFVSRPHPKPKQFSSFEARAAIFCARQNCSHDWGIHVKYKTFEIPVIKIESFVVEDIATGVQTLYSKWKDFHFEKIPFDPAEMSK

B1: M5: rbRNA, RIG-I agonist, 81 nucleotides, SEQ ID NO:26 (nucleic acid)
chain: GACGAAGACCACAAAACCAGATAAAAAATTATTTTTTATCTGGTTTTGTGGTCTTCGTCTATAGTGAGTCGTATTAATTTC
modifications: listed as DNA, chemistry not given here

Target: T1, RIG-I
Test: UV cross-linking with quantitative real-time PCR (CLIP-PCR) of RIG-I complexes
Assay type: binding
Method: Graphic representation indicating the distribution of non-coding and repetitive RNA molecules bound to RIG-I following exposure to IR as compared to total irradiated cellular RNA. Transcripts were mapped to reference genomes using RepeatMasker. See Methods for further details. […] Cells were UV crosslinked at 150 mJ/cm^2 48 hours post-IR treatment prior to cell lysis. […] FIG. 29H show IFN-b levels in culture supernatant from ICR RIG-I^+/+ and primary MEFs 24 hours post-stimulation with the same set of synthetic U1 oligonucleotides used in (FIG. 29G) The amount of U1 synthetic oligonucleotides used in all stimulation experiments was 1 μg. P values were determined using unpaired Student's t-test. Error bars are SEM. ***P<0.005.
Technically, identification of RNAs was performed as follows: HEK293 cells were transiently transfected with 3×FLAG-tagged full-size RIG-I in pEF-BOS vector (Addgene; Cambridge, Mass.). Twenty-four hours post-transfection, cells were either mock-irradiated or exposed to IR (6 Gy). Forty-eight hours post-IR, cells were lysed with a modified lysis buffer (50 mM Tris-Cl pH 7.5, 0.15 M NaCl, 0.1% NP-40, 1.0% Triton X-100, 1 mM EDTA pH8.0, 1 mM EGTA pH8.0, 10% Glycerol, 2.5 mM MgCl2, 1 mM DTT, 0.1 mM ATP, and 1× Halt Protease Inhibitor) and incubated on ice for 1 hour. Cell lysates were separated from cell debris by centrifugation at 12,000 rpm at 4° C. Protein concentration was measured by BCA kit. Anti-FLAG monoclonal antibody was added to the cell lysate at a 1:500 dilution, and incubated overnight at 4° C. Protein G sepharose beads were added to the lysates and incubated for at least 2 hours at 4° C. Beads containing the antibody-RIG-I complexes were washed five times in wash buffer (50 mM Tris-Cl pH 7.5, 0.15 M NaCl, 1 mM MgCl2, 0.05% NP-40, 1 mM DTT) and proteins were eluted from the beads using a soft elution buffer (0.5% SDS, 0.1% Tween-20, 50 mM Tris pH 8.0) for 10 minutes at room temperature with vortexing every 2-3 minutes. Proteinase K was added to the eluates and incubated at 50° C. for 45 minutes. Trizol reagent was then added to the solution, and RNA bound to RIG-I was purified following manufacturer's protocol. RNA quality was analyzed using an Agilent Bioanalyzer 2100 with Pico Series II cartridges. RNA yield was measured using the Qubit RNA Broad Range kit. For qRT-PCR validation experiments of RIG-I pulled down RNA, UV cross-linking (2 doses at 150 mJ/cm^2) was performed on HEK293 and HCT116 overexpressing RIG-I prior to cell lysis. The same protocol for pulldown and RNA purification experiments was performed as described above.

Molecule	levels in RIG-I pulldown after IR (HEK293 overexpressing K858A-K861A RNA binding deficient mutant RIG-I)	binding to K858A-K861A RNA binding deficient mutant RIG-I (CLIP-PCR)
U2: snRNA, SEQ ID NO:21	did not detect increased levels	
B1		did not bind
